Target: T1, Kir3.1/3.4 (Rattus norvegicus, UniProt P48548+P63251)
T1 construct: expressed in transfected cells
T1 sequence (P63251 1-501): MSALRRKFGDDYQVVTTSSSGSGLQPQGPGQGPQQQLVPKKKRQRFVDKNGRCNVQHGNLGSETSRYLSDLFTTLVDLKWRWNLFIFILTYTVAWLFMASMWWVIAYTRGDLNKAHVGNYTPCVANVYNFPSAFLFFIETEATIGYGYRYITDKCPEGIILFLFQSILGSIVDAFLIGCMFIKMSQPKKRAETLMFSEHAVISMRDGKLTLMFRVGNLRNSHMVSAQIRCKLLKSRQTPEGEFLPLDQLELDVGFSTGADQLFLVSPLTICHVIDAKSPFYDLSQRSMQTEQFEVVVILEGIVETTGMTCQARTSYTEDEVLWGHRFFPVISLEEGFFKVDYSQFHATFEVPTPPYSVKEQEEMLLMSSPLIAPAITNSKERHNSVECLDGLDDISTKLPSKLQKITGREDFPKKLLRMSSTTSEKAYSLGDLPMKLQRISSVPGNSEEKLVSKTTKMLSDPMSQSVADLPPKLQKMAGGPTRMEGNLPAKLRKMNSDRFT
T1 sequence (P48548 1-419): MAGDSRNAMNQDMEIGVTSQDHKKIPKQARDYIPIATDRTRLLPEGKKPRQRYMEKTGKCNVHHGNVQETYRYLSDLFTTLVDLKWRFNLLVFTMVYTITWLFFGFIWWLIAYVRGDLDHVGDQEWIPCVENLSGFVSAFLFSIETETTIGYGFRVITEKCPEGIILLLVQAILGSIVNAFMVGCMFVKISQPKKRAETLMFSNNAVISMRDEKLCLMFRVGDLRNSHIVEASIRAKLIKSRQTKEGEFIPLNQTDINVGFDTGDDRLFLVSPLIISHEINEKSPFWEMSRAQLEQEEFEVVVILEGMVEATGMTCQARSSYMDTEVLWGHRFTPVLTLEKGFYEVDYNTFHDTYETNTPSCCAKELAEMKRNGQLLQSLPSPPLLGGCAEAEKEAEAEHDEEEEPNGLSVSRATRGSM
Test: Kir3.1/3.4 Electrophysiology Method (manual whole-cell patch clamp)
Type: cell-based
Conditions: Electrophysiology Method (TABLE 1)
Experimental: Compound activity against the recombinant G-protein activated inward rectifier current encoded by the heterotetramer Kir3.1/3.4 was assessed using manual whole-cell patch technique. The heterotetramer forms the pore-forming channel that conducts the acetylcholine/adenosine-activated potassium current in the heart.
For whole-cell patch-clamp studies, cells (Human Embryonic Kidney 293 stably transfected with rat Kir3.1/3.4) were seeded onto glass coverslips before recordings were made. Cells were seeded in sterile 30 mm Petri dishes at a density to enable isolated cells to be selected for patch clamp experiments. The dishes were stored in a humidified, gassed (5% CO2) incubator at 37° C. until use.
Whole-cell patch-clamp recordings of membrane currents were made following gigaohm seal formation between the patch electrode and the cell using HEKA EPC-9/10 amplifiers controlled by Pulse Software (Ver8.5x/8.6×/8.7×, HEKA, Germany). Coverslips seeded with cells were placed in a recording chamber mounted on the stage of an inverted microscope. During the experiment, the cell of interest was continuously superfused with bather solution delivered via a cannula placed in close proximity to the cell to enable control of the extracellular solution environment. Only those cells with a current <−500 pA (current at −140 mV) were used for experiments. During experiments, series resistance was compensated by a minimum of 70%.
Electrophysiology voltage-step protocols and analysis of data were performed as follows. Data was sampled at 5 kHz, and filtered with a −3 dB bandwidth of 2.5 kHz. Cells were held at a voltage of −60 mV. Currents were evoked by a depolarising voltage step to +60 mV (100 ms) before a ramp-repolarisation (0.4 V·s^−1) to −140 mV (100 ms) before returning to −60 mV. The command waveform was repeatedly applied every 10 s throughout the experiment. Mean currents during 1-99% of the time at −140 mV were analysed using Pulsefit software (v8.x, HEKA, Germany). The voltage protocol was repeatedly applied to achieve a stable current baseline in bather before the test substance was superfused via the cannula in close proximity to the cell under investigation. The test substance was allowed to equilibrate during which time voltage protocol was repeatedly applied and recorded. On reaching steady-state inhibition, the cell was superfused with an identical bather solution containing zero external potassium chloride (replaced by equimolar NaCl). The identical current measurement was made in the absence of potassium to assess the passive leak at −140 mV. The leak current was subtracted from the control and steady-state drug current values. The percentage inhibition of the leak-subtracted current in the presence of test substance was calculated relative to the control leak-subtracted pre-drug value. Internal patch-pipette solution contained in mM: 110 KCl, 20 NaCl, 0.9 GTPγS, 5 Mg-ATP, 5 EGTA, 10 HEPES, pH7.2 corrected with KOH. The external superfusate composition in mM was: 150 (or 160) NaCl, 10 (or 0) KCl, 3 CaCl2, 1 MgCl, 10 HEPES, pH 7.4 corrected with NaOH.

Row | IC50 [µM] | Structure (SMILES)
1 | < 0.5 | Nc1nc(N2CCC(COCCN3CCCC3)CC2)c2c(-c3ccccc3)csc2n1 [Example 314, 5-phenyl-4-[4-(2-pyrrolidin-1-ylethoxymethyl)-1-piperidyl]thieno[2,3-d]pyrimidin-2-amine]
2 | 0.5 to 3 | CN(C)C(=O)c1cccc(-c2csc3ncnc(N4CCC(COCCN5CCCC5)CC4)c23)c1 [Example 332]
3 | < 0.5 | FC(F)(F)C1CCCN(CC2CCN(c3ncnc4scc(-c5ccccc5)c34)CC2)C1 (stereo not shown) [Example 212]
4 | < 0.5 | O=C(Cc1nc(N2CCCC2c2ccccc2)c2c(-c3ccc(F)cc3)csc2n1)NCCN1CCCC1 (stereo not shown) [Example 199]
5 | < 0.5 | COCCNCC1CCN(c2nc(N3CCC(COC)CC3)c3c(-c4ccccc4)csc3n2)CC1 [Example 192]
6 | 0.5 to 3 | CN(C)C1CCN(c2nc(N3CCC(O)C3)nc3scc(-c4ccccc4)c23)CC1 (stereo not shown) [Example 188]
7 | < 0.5 | CC(C)(C)OC(=O)N1CCCC1CCNCC1CCN(c2ncnc3scc(-c4ccccc4)c23)CC1 (stereo not shown) [Example 82, tert-butyl 2-[2-[[1-(5-phenylthieno[2,3-d]pyrimidin-4-yl)-4-piperidyl]methylamino]ethyl]pyrrolidine-1-carboxylate]
8 | < 0.5 | CN(C)C1CCCN(CC2CCN(c3ncnc4scc(-c5ccccc5)c34)CC2)C1 (stereo not shown) [Example 60, N,N-dimethyl-1-[[1-(5-phenylthieno[2,3-d]pyrimidin-4-yl)-4-piperidyl]methyl]piperidin-3-amine]
9 | < 0.5 | CC(=O)N(C)C1CCN(c2nc(N3CCC(CN(C)C4CCN(C)C4)CC3)c3c(-c4ccccc4)csc3n2)CC1 (stereo not shown) [Example 241]
10 | < 0.5 | OC1(CN2CCCC2)CCN(c2ncnc3scc(-c4ccccc4)c23)CC1 [Example 195]
11 | < 0.5 | COc1ccccc1-c1csc2ncnc(N3CCC(COCCN4CCCC4)CC3)c12 [Example 329]
12 | < 0.5 | NC(=O)C1CCN(c2nc(N3CCC(COCCN4CCCC4)CC3)c3c(-c4ccccc4)csc3n2)C1 (stereo not shown) [Example 256]
13 | 0.5 to 3 | CN1CCC(N(C)CC2CCN(c3nc(N4CCCCC4C(N)=O)nc4scc(-c5ccccc5)c34)CC2)C1 (stereo not shown) [Example 129]
14 | < 0.5 | CN(C)C1CCCN(CC2CCCN(c3ncnc4scc(-c5ccccc5)c34)C2)C1 (stereo not shown) [Example 208]
15 | 0.5 to 3 | Cc1csc2ncnc(N3CCC(COCCC4CCCN4C)CC3)c12 (stereo not shown) [Example 2, 5-methyl-4-[4-[2-(1-methylpyrrolidin-2-yl)ethoxymethyl]-1-piperidyl]thieno[2,3-d]pyrimidine]
16 | 0.5 to 3 | c1cncc(-c2csc3ncnc(N4CCC(COCCN5CCCC5)CC4)c23)c1 [Example 324]
17 | < 0.5 | C(#Cc1ncnc2scc(-c3ccccc3)c12)COCCN1CCCC1 [Example 161, 5-Phenyl-4-[3-(2-pyrrolidinyl-1-ylethoxy)prop-1-ynyl]thieno[2,3-d]pyrimidine]
18 | < 0.5 | CC(C)NC(=O)c1sc2ncnc(N3CCC(CN(C)C4CCN(C)C4)CC3)c2c1-c1ccccc1 (stereo not shown) [Example 132]
19 | < 0.5 | CN1CCC(N(C)CC2CCN(c3nc(N4CCC[C@@H]4C(N)=O)nc4scc(-c5ccccc5)c34)CC2)C1 (stereo partly shown) [Example 229]
20 | < 0.5 | COCC1CCN(c2nc(OC3CC4CC3CN4)nc3scc(-c4ccccc4)c23)CC1 (stereo not shown) [Example 307]
21 | < 0.5 | CC1CC(CNCCC2CCCN2C)CN1c1ncnc2scc(-c3ccccc3)c12 (stereo not shown) [Example 209]
22 | 0.5 to 3 | FC(F)(F)c1nc(N2CCOCC2)c2c(-c3ccccc3)csc2n1 [Example 336]

Row | Structure (SMILES) | IC50 [µM]
23 | NC(=O)C1CCN(c2nc(N3C4CCC3CC(NC3CCC3)C4)c3c(-c4ccccc4)csc3n2)C1 (stereo not shown) [Example 337, 1-[4-[3-(cyclobutylamino)-8-azabicyclo[3.2.1]octan-8-yl]-5-phenyl-thieno[2,3-d]pyrimidin-2-yl]pyrrolidine-3-carboxamide] | 0.5 to 3
24 | CCc1nc(N2CCC(N(C)C)CC2)c2c(-c3ccccc3)csc2n1 [Example 170] | 0.5 to 3
25 | COc1ccccc1-c1csc2ncnc(N3C4CCC3CC(CNC3CCC3)C4)c12 (stereo not shown) [Example 367] | < 0.5
